# The source made the active and inactive calls.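 How the source made its calls: active means STAT3 activation with EC50 of 10 µM or lower; inactive means EC50 above 10 µM or none.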
# System: U3A STAT3-luciferase reporter, IL-6 stimulated, luminescence
# Assay: enhancement of STAT3 luciferase transcription – U3A cells, luminescence, dose response, powder samples, counter-screen for STAT1 activator project, late-stage follow-up (AID 434940)
row,Compound,EC50
1,CCN(CC)c1ccc2cc(C(=O)Nc3ccccn3)c(=O)oc2c1,0.804 µM
2,Cc1nnc(SCC(=O)Nc2ccc(-c3nc4ccccc4s3)cc2)s1,> 55.7 µM (inactive)
3,Cc1ccc(C(=O)Nc2nc3ccccc3s2)s1,> 55.7 µM (inactive)
4,O=C(Nc1nc2ccccc2s1)c1cc2ccccc2s1,> 55.7 µM (inactive)
5,COc1ccc(-c2csc(N3C(=O)CNC3=S)n2)cc1,> 55.7 µM (inactive)
6,CC(=O)NC(=S)Nc1sc2c(c1C#N)CCCCC2,> 55.7 µM (inactive)
7,COc1ccc2[nH]c3c(c2c1)CCn1c-3nc2ccccc2c1=O,> 18.6 µM (inactive)
8,COc1ccc(-c2cc(C)nc3c(-c4ccccc4)cnn23)cc1,> 55.7 µM (inactive)
9,Cc1cc(-c2ccncc2)n2ncc(-c3ccccc3)c2n1,> 55.7 µM (inactive)
10,O=C(/C=C/Nc1ccccc1F)c1ccc(Br)cc1,> 55.7 µM (inactive)
